Results from ChEMBL document CHEMBL1201862, “PubChem BioAssay data set” (2004).
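In this assay, cells in 96-well plates receive the compound at five concentrations for 48 hours. Endpoints are linearly interpolated between the surrounding concentrations. Abbreviation: GI50, concentration required for 50% inhibition of growth.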 Active and inactive are the calls of the source. Cut-off read from the data, not from the text of the source: active = GI50 up to about 1.1 µM and inactive = higher. Starred links: 1 amine or outer side, 2 acyl side, 3 side chain; linkers in the order of their positions; H or OH if unused. Non-standard residues stand in square brackets, D forms with d. Residues, ends and D or L forms follow the SMILES beside them. X41 = CSCCCC(N[*:1])C(=O)[*:2]

How the values were obtained:
Test in all cases: growth of human tumour cells (NCI), 48 h
LOX IMVI = test system: LOX IMVI
SF-539 = test system: SF-539
Malme-3M = test system: Malme-3M
MCF7 = test system: MCF7
SN12C = test system: SN12C
NCI-H522 = test system: NCI-H522
T47D = test system: T47D
MOLT-4 = test system: MOLT-4
U-251 = test system: U-251
SK-MEL-2 = test system: SK-MEL-2
NCI-H23 = test system: NCI-H23
CAKI-1 = test system: CAKI-1
TK-10 = test system: TK-10
CCRF-CEM = test system: CCRF-CEM
HCT-116 = test system: HCT-116
KM12 = test system: KM12
OVCAR-8 = test system: OVCAR-8
EKVX = test system: EKVX
SNB-75 = test system: SNB-75
K562 = test system: K562

Measured: GI50

C[C@]12CC[C@H]3[C@@H](CC=C4C[C@@H](N5CCCC5)CC[C@@]43C)[C@@H]1C/C(=C\c1ccc([N+](=O)[O-])cc1)[C@@H]2O
active: MOLT-4 0.942 µM
inactive: LOX IMVI 16.4 µM | SF-539 15.4 µM | Malme-3M 16.5 µM | MCF7 20.7 µM | SN12C 14.4 µM | NCI-H522 17.1 µM | T47D 20.7 µM | U-251 12.7 µM | SK-MEL-2 > 10 µM | NCI-H23 19.7 µM | CAKI-1 13.3 µM | TK-10 17.5 µM | CCRF-CEM 3.21 µM | HCT-116 16.3 µM | KM12 16.2 µM

NNC(=O)CS(=O)(=O)Nc1ncccn1
inactive: OVCAR-8 > 100 µM | LOX IMVI > 100 µM | SF-539 > 100 µM | Malme-3M > 100 µM | MCF7 > 100 µM | SN12C > 100 µM | NCI-H522 > 100 µM | T47D > 100 µM | EKVX > 100 µM | U-251 > 100 µM | SK-MEL-2 > 100 µM | SNB-75 > 100 µM | NCI-H23 > 100 µM | CAKI-1 > 100 µM | TK-10 13.2 µM | HCT-116 > 100 µM | KM12 > 100 µM | K562 > 100 µM

O=C(OCCC12CC3CC(CC(C3)C1)C2)c1ccc(NCc2cc(O)ccc2O)cc1
active: LOX IMVI 0.757 µM | SF-539 0.652 µM | MCF7 0.557 µM | SN12C 0.719 µM | NCI-H522 0.148 µM | T47D 0.214 µM | MOLT-4 0.262 µM | U-251 0.445 µM | NCI-H23 0.689 µM | CAKI-1 0.363 µM | CCRF-CEM 0.101 µM | KM12 0.69 µM
inactive: Malme-3M 1.85 µM | EKVX 1.7 µM | SK-MEL-2 1.24 µM | SNB-75 1.38 µM | TK-10 1.52 µM | HCT-116 1.26 µM | K562 1.66 µM

CSCCCC(NC(=O)CNC(=O)C1CCCN1C(=O)C(Cc1ccc(O)cc1)NC(=O)C(Cc1ccccc1)NC(=O)C(CCCNC(=N)N)NC(=O)C(CC(=O)O)NC(=O)C1CCCN1C(=O)C(CC(=O)O)NC(=O)C1CCCN1C(=O)C1CCCN1C(=O)CN)C(N)=O (stereo not given) (H-GPPDPDRFYPG[X41]-NH2; configuration not given here)
inactive: OVCAR-8 > 50 µM | LOX IMVI > 50 µM | SF-539 > 50 µM | Malme-3M > 50 µM | MCF7 > 50 µM | SN12C > 50 µM | NCI-H522 > 50 µM | T47D > 50 µM | EKVX > 50 µM | MOLT-4 > 50 µM | U-251 > 50 µM | SK-MEL-2 > 50 µM | NCI-H23 > 50 µM | CAKI-1 > 50 µM | TK-10 > 50 µM | CCRF-CEM > 50 µM | HCT-116 > 50 µM | KM12 > 50 µM | K562 > 50 µM

Cc1cc2[nH]c3c(C#N)c(-c4ccccc4)c(/C=N/c4ccc(F)cc4)c(=O)n3c2cc1C
inactive: OVCAR-8 > 100 µM | LOX IMVI > 100 µM | SF-539 > 100 µM | Malme-3M 76 µM | MCF7 86.9 µM | SN12C > 100 µM | NCI-H522 45.5 µM | T47D 40.6 µM | EKVX > 100 µM | U-251 > 100 µM | SK-MEL-2 > 100 µM | SNB-75 > 100 µM | NCI-H23 > 100 µM | CAKI-1 > 100 µM | TK-10 > 100 µM | CCRF-CEM > 100 µM | HCT-116 > 100 µM | KM12 68.5 µM

O=C(O)c1cc(-c2ccncc2)nc2ccccc12
inactive: OVCAR-8 > 100 µM | LOX IMVI > 100 µM | SF-539 > 100 µM | Malme-3M > 100 µM | MCF7 > 100 µM | SN12C > 100 µM | NCI-H522 > 100 µM | T47D > 100 µM | EKVX > 100 µM | MOLT-4 > 100 µM | U-251 > 100 µM | SK-MEL-2 > 100 µM | NCI-H23 > 100 µM | CAKI-1 > 100 µM | TK-10 > 100 µM | HCT-116 > 100 µM | KM12 > 100 µM | K562 > 100 µM

O=C(Cc1cc(=O)oc2cc(O)ccc12)N/N=C/c1ccc(N(CCCl)CCCl)cc1
inactive: OVCAR-8 15.1 µM | LOX IMVI 16.6 µM | SF-539 18 µM | Malme-3M 20.5 µM | MCF7 14.8 µM | SN12C 17.7 µM | NCI-H522 20.9 µM | T47D > 10 µM | EKVX 17.5 µM | MOLT-4 15.3 µM | U-251 17.4 µM | SK-MEL-2 > 100 µM | SNB-75 21.7 µM | NCI-H23 22.3 µM | CAKI-1 12.7 µM | CCRF-CEM 15 µM | HCT-116 16.6 µM | KM12 32.4 µM | K562 23.5 µM

O=C1NC(N2CCOCC2)=N/C1=C\c1ccc(Cl)cc1
inactive: OVCAR-8 > 100 µM | LOX IMVI > 100 µM | SF-539 > 100 µM | Malme-3M > 100 µM | MCF7 > 100 µM | SN12C > 100 µM | NCI-H522 > 100 µM | T47D > 100 µM | EKVX > 100 µM | MOLT-4 > 100 µM | U-251 > 100 µM | SK-MEL-2 > 100 µM | SNB-75 60.8 µM | NCI-H23 > 100 µM | CAKI-1 > 100 µM | TK-10 > 100 µM | CCRF-CEM > 100 µM | HCT-116 > 100 µM | KM12 > 100 µM

Cc1sc2nc(-c3ccc(Cl)c([N+](=O)[O-])c3)c(/C=N/NC(=N)N)n2c1C
active: OVCAR-8 0.824 µM | LOX IMVI 0.585 µM | MCF7 0.685 µM | U-251 0.341 µM | KM12 0.45 µM
inactive: SF-539 1.64 µM | Malme-3M 2 µM | SN12C 1.31 µM | NCI-H522 1.71 µM | T47D 1.46 µM | EKVX 1.69 µM | MOLT-4 1.5 µM | SK-MEL-2 1.32 µM | NCI-H23 1.73 µM | CAKI-1 1.62 µM | TK-10 1.75 µM | K562 2.39 µM

C=CCC(CNC(=O)OCc1ccccc1)OC(=O)OCc1ccccc1 (stereo not given)
inactive: OVCAR-8 69 µM | LOX IMVI > 100 µM | SF-539 > 100 µM | MCF7 39.1 µM | SN12C > 100 µM | NCI-H522 62.1 µM | T47D 47.8 µM | EKVX 33.4 µM | MOLT-4 25.8 µM | U-251 > 100 µM | SK-MEL-2 48.2 µM | SNB-75 > 100 µM | NCI-H23 43.9 µM | CAKI-1 > 100 µM | TK-10 > 100 µM | CCRF-CEM 47.4 µM | HCT-116 51.9 µM | KM12 48.1 µM | K562 37.3 µM

Cc1ccc2c(c1C)C(=O)/C(=C/c1cccc(C)c1C(=O)O)C2
inactive: OVCAR-8 86.5 µM | LOX IMVI 44.1 µM | SF-539 69.2 µM | Malme-3M 71 µM | MCF7 25.9 µM | SN12C > 71.4 µM | NCI-H522 40.1 µM | T47D > 100 µM | EKVX > 100 µM | MOLT-4 53.2 µM | U-251 79.1 µM | SK-MEL-2 > 83.6 µM | SNB-75 69.3 µM | NCI-H23 > 100 µM | TK-10 > 100 µM | CCRF-CEM 50.7 µM | HCT-116 48.4 µM | KM12 47.6 µM | K562 72.8 µM

CCCCCC(C)C[C@H]1CO[C@H](c2ccc[nH]2)N[C@H]1C(=O)OC (stereo not given in full)
inactive: OVCAR-8 > 100 µM | LOX IMVI > 100 µM | SF-539 > 100 µM | Malme-3M > 100 µM | MCF7 > 100 µM | SN12C > 100 µM | NCI-H522 > 100 µM | T47D > 100 µM | EKVX > 100 µM | MOLT-4 > 100 µM | U-251 > 100 µM | SK-MEL-2 > 100 µM | NCI-H23 > 100 µM | CAKI-1 > 100 µM | TK-10 > 100 µM | CCRF-CEM > 100 µM | HCT-116 > 100 µM | KM12 > 100 µM

O=c1c2ccccc2nc(-c2cccc([N+](=O)[O-])c2)n1O
inactive: OVCAR-8 20.3 µM | LOX IMVI 27.2 µM | SF-539 47.8 µM | Malme-3M > 80 µM | MCF7 24.4 µM | SN12C 24.2 µM | NCI-H522 28.6 µM | T47D 58.5 µM | EKVX 36.8 µM | U-251 27.4 µM | SK-MEL-2 22.6 µM | SNB-75 45.8 µM | NCI-H23 50 µM | CAKI-1 40.7 µM | TK-10 94.2 µM | HCT-116 41.5 µM | KM12 36.5 µM | K562 4.22 µM

O=C1NC(=O)C(c2c[nH]c3cc(Br)ccc23)=C1c1cnc[nH]1
inactive: OVCAR-8 65.2 µM | LOX IMVI 19.5 µM | SF-539 21.9 µM | Malme-3M > 100 µM | MCF7 21.7 µM | SN12C 53.3 µM | NCI-H522 31.8 µM | T47D 48.8 µM | EKVX 23.4 µM | MOLT-4 23.9 µM | U-251 32.5 µM | SK-MEL-2 22.9 µM | SNB-75 > 100 µM | CAKI-1 13.2 µM | TK-10 34.9 µM | CCRF-CEM 34.8 µM | HCT-116 25.8 µM | KM12 21.1 µM | K562 25.6 µM

Oc1c(CN2CCN(c3ccccc3)CC2)cc(Br)c2cccnc12
active: OVCAR-8 0.721 µM | LOX IMVI 0.52 µM | Malme-3M 0.995 µM | MCF7 0.966 µM | SN12C 0.991 µM | NCI-H522 0.555 µM | MOLT-4 0.349 µM | U-251 0.671 µM | CCRF-CEM 0.271 µM | HCT-116 0.448 µM
inactive: SF-539 2.07 µM | T47D 1.32 µM | EKVX 2.62 µM | SK-MEL-2 2.17 µM | SNB-75 3.78 µM | NCI-H23 1.82 µM | CAKI-1 1.21 µM | TK-10 3.61 µM | KM12 1.56 µM
